The record followed here is patent US5872115A, “2-ureido-benzamide derivatives” (Grelan Pharmaceutical Co. Ltd., priority 1995, dated 1999).

The subject of one data set is ACAT of macrophage. Briefly: In-vivo test using mouse peritoneal macrophages (ACAT inhibition). The settings on record: male mice, compound in diet for 16 days. Here is the method:
(3) In-vivo Test Using Mouse Peritoneal Macrophages
Male mice were fed a standard powder diet containing the test compounds for 16 days. After 14 and 15 days on this diet, aggregated-LDL (containing 4 mg cholesterol) prepared from LDL receptor deficient KHC rabbit and [^14 C] oleic acid together with the said aggregated-LDL (containing 0.5 mg cholesterol) were injected into the peritoneal cavity of these animals, respectively. After 16 days on this treatment, peritoneal macrophages were harvested by peritoneal lavage with PBS solution and CHCl3 -MeOH (2:1) were added to the cell suspension in order to extract lipids. Formed [^14 C] cholesterol oleate was separated by thin-layer chromatography and the radioactivity was counted.
ACAT inhibitory activities of the test compounds were shown as inhibiting percentage referred to control group.

A further data set deals with ACAT of macrophages. The experiment in a line: In vivo test using peritoneal macrophages in C57BL/6J mice (ACAT inhibition). Further details: species or system mouse. Particulars: female C57BL/6J mice, 30 mg/kg/day per os for 4 days. Here is the method: (6) In Vivo Test Using Peritoneal Macrophages in C57BL/6J Mice
A standard pellet diet fed female C57BL/6J mice were administered at 10 a.m. per os 30 mg/kg/day of oral suspension (1% CMC-Na 0.2% Tween 80) for 4 days. Thioglycollate and [^14 C] cholesterol were injected […], mice were sacrificed for the collection of peritoneal macrophages. Lipid was extracted, formed [^14 C] cholesterol-ester was separated by thin-layer chromatography and radioactivity was counted as described above in method (3).
In vivo ACAT inhibitory activities on macrophages were expressed as percentage of inhibition compared to control group.

In the next data set the target is T1, ACAT of THP-1 cells (Homo sapiens, UniProt P35610).
T1 construct: differentiated into macrophage-like cells by phorbol ester; endogenous in cells; host or cells: THP-1 (human leukemia), intact cells differentiated by phorbol ester
T1 sequence (P35610 1-550): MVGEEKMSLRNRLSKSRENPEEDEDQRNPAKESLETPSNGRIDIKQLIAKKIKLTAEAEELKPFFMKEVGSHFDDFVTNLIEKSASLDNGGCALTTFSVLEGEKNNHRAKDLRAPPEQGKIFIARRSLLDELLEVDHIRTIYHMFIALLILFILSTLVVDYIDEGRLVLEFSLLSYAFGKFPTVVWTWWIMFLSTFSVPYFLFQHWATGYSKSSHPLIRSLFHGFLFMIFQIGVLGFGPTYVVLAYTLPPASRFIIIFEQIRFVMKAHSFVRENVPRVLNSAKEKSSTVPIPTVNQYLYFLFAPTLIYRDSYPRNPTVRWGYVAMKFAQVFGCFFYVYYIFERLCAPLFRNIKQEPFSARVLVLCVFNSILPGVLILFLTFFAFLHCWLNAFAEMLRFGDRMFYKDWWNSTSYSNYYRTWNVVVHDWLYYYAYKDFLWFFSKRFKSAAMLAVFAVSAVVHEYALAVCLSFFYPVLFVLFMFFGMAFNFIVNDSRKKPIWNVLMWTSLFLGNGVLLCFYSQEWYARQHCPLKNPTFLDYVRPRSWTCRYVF
Briefly: In-vitro test using THP-1 intact cell (ACAT inhibition). The settings on record: read-out: IC50 THP1 (intact cell). The class given is cell-based. Here is the method:
(2) In-vitro Test Using THP-1 Intact Cell
About 2 million cells of human leukemia cell line, THP-1 were seeded in a well with 2 ml of medium and differentiated into macrophage-like cells by phorbol ester. Then, the cells were washed with phosphate-buffered saline (PBS) solution and the medium was replaced by fresh medium supplemented with 10% of lipoprotein-deficient serum. After the addition of each test compound dissolved in dimethyl sulfoxide and 100 μg protein-containing human low density lipoprotein (LDL), the reaction was initiated by the addition of 10 nmoles of labeled [^14 C]oleic acid and 10 nmoles of oleic acid complexed with BSA in PBS solution. After 22 hours, the reaction was stopped by removal the medium and CHCl3 -MeOH (2:1) were added to the cell suspension in order to extract lipids.
Intracellular [^14 C] cholesterol-oleate formed was separated by thin-layer chromatography and the radioactivity was counted with lipid scintillation counter.
(§1) ACAT inhibitory activities of the test compounds were shown as IC50 values.

Data set [1] is described as follows: Acute toxicity, male ICR strain mouse. The class given is in vivo. Particulars: 1000 mg/kg orally, seven days after administration. Here is the method: (1) Acute toxicity: Nine compounds (Example Nos. 1, 2, 5, 6, 12, 19, 28, 31 and 45) were tested by using male ICR strain mouse weighing 23.0±0.7 g.
A further data set relates to ACAT of HepG2 microsome. The experiment in a line: In-vitro test using Hep G2 microsome (ACAT inhibition). The class given is biochemical, human. Here is the method:
(1) In-vitro Test Using Hep G2 Microsome
ACAT enzyme fraction was prepared from microsome of human derived hepatoma Hep G2 cell according to Sandra's method [Journal of Lipid Research, 27, 875 (1986)].
Microsome was suspended at a concentration of 200 μg protein/20 μl in 0.1M phosphate buffer solution (pH7.4) and the suspension was preincubated at 37° C. for 5 minutes after addition of 10 μl of each test compound dissolved in 0.1M phosphate buffer solution containing bovine serum albmin (BSA). Then, the reaction was initiated by the addition of 5 nmoles of labeled [^14 C]-oleoyl-CoA dissolved in 20 μl of the said phosphate buffer solution containing BSA and the reaction was stopped by the addition of 20 μl of 2N HCl after 10 minutes. [^14 C] cholesterol-oleate formed was separated by thin-layer chromatography and the radioactivity was counted with liquid scintillation counter.
as §1

In data set [2] the target is T2, THP-1 microsomal ACAT (Homo sapiens, UniProt P35610).
T2 construct: ACAT enzyme fraction was prepared from microsome of human leukemia THP-1 cell; endogenous in cells; host or cells: THP-1 (human leukemia), microsomes
T2 sequence (P35610 1-550): T1 sequence (P35610 1-550)
The experiment in a line: Bioavailability assessment of ACAT inhibitors by their ex vivo activity (serum of dosed mice on THP-1 microsomal ACAT). The format is in vivo. The settings on record: female mice, 30 mg/kg per os, 1% CMC-Na 0.2% Tween 80; maximum inhibition by serum. Here is the method:
(5) Bioavailability Assessment of ACAT Inhibitors by Their <<ex vivo>> Activity
[…] Blood samples were collected 0.5, 1, 1.5, 2, 6 hour postdose. Serum were harvested after gentle centrifugation and stored at -20.
The following day, 10 μl serum were preincubated at 37 for 5 minutes with 20 μl of THP-1 microsomal ACAT and then incubated 10 minutes with 20 μl of radiolabeled oleoyl-CoA as described above in method (4). The serum is used instead of the drug solution.
ACAT inhibitory activities of the test compounds were shown as maximum inhibition percentages (Imax).

Data set [3] concerns the target T2, THP-1 microsomal ACAT. Briefly: In vitro test using THP-1 microsome (ACAT inhibition). The format is biochemical. The settings on record: THP-1 microsome; read-out: IC50 THP1 microsome.
Method: (4) In Vitro Test Using THP-1 Microsome
Then, the reaction was initiated by the addition of 5 nmoles of labeled [^14 C] oleoyl-CoA dissolved in 20 μl of said phosphate buffer solution containing BSA and the reaction was stopped by the addition of 20 μl of 2N HCl after 10 minutes. [^14 C] cholesterol-oleate formed was separated by thin-layer chromatography and the radioactivity was counted with liquid scintillation counter.

As for `CCCCCCCNC(=O)Nc1ccc(N(C)C)cc1C(=O)NCC1CCN(C(c2ccccc2)c2ccccc2)CC1` [Example 1, 2-(N'-n-Heptylureido)-5-dimethylamino-N-[(1-diphenylmethylpiperidin-4-yl)methyl]-benzamide], the “Inhibition rate (macrophages)” value is 65% with ACAT of macrophage and 81.0% in the data set with ACAT of macrophages (Experiment 1). In addition, the IC50 at ACAT of THP-1 cells amounted to 70 nM; in the data set with ACAT of HepG2 microsome, 600 nM. For the same molecule, the “macroscopic changes on any organs at autopsy” value in data set [1] is given as “no macroscopic changes were observed”.
On to `CCCCCCCNC(=O)Nc1ccccc1C(=O)NCC1CCN(C(c2ccccc2)c2ccccc2)CC1` [Example 5, 2-(N'-n-Heptylureido)-N-[(1-diphenylmethylpiperidin-4-yl)methyl]benzamide], for which the “Inhibition rate (macrophages)” value with ACAT of macrophage came to 64%. Further, the values for the IC50 at ACAT of THP-1 cells and in the data set on ACAT of HepG2 microsome were 70 nM and 1600 nM, respectively. Besides, the “macroscopic changes on any organs at autopsy” value in data set [1] is on record as “no macroscopic changes were observed”.
`CCCCNC(=O)Nc1ccc(N(C)C)cc1C(=O)NCC1CCN(C(c2ccccc2)c2ccccc2)CC1` [Example 63, 2-(N'-n-Butylureido)-5-dimethylamino-N-[(1-diphenylmethylpiperidin-4-yl)-methyl]-benzamide]: the “Imax Ex vivo” value on THP-1 microsomal ACAT [2] amounted to 68.52%. For the same molecule, the “Inhibition rate (macrophages)” value in the data set with ACAT of macrophages (Experiment 1) stood at 72.3%; with ACAT of macrophages (Experiment 2) it was 61.0%. Further, the IC50 on THP-1 microsomal ACAT [3] came out at 50 nM.
On to `CCCNC(=O)Nc1ccc(N(C)C)cc1C(=O)NCC1CCN(C(c2ccccc2)c2ccccc2)CC1` [Example 66, 5-Dimethylamino-2-(N'-n-propylureido)-N-[(1-diphenylmethylpiperidin-4-yl)methyl]-benzamide], for which, at THP-1 microsomal ACAT [2], the “Imax Ex vivo” value came to 77.59%. Also, the “Inhibition rate (macrophages)” value with ACAT of macrophages (Experiment 1) amounted to 73.5%. In addition, the IC50 on THP-1 microsomal ACAT [3] came out at 80 nM.
`CCCCNC(=O)Nc1ccc(N2CCOCC2)cc1C(=O)NCC1CCN(C(c2ccccc2)c2ccccc2)CC1` [Example 70, 2-(N'-n-Butylureido)-5-(morpholin-4-yl)-N-[(1-diphenylmethylpiperidin-4-yl)methyl]-benzamide]: in the data set with ACAT of macrophages (Experiment 2), the “Inhibition rate (macrophages)” value is 73.0%. Also, on THP-1 microsomal ACAT [3], the IC50 worked out at 60 nM.
As for `CCCNC(=O)Nc1ccc(N2CCOCC2)cc1C(=O)NCC1CCN(C(c2ccccc2)c2ccccc2)CC1` [Example 71, 5-(Morpholin-4-yl)-2-(N'-n-propylureido)-N-[(1-diphenylmethylpiperidin-4-yl)methyl]-benzamide], the “Imax Ex vivo” value at THP-1 microsomal ACAT [2] was found to be 81.1%. For the same molecule, the “Inhibition rate (macrophages)” value in the data set on ACAT of macrophages (Experiment 2) is 73.5%. The concentration for half-maximal inhibition (IC50) at THP-1 microsomal ACAT [3] came out at 90 nM.
